Assay results: patent US12643899B2, “Antiviral agents, uses thereof and methods for their preparation” (The University of British Columbia, priority 2020, dated 2026)

What was measured:
ZIKV [1] = experiment: NS1 and dsRNA in ZIKV-infected brain organoids; type: cell-based, Zika virus; settings: 10 μM, 69 hours, MOI 1
Experimental: FIG. 17 is a schematic showing the general method 20 used in Example 6. Referring to FIG. 17, following growth of the brain organoids in STEMdiff™ media 22 (4 organoids/well), the media was aspirated 24. Then, 500 μL ZIKV at the desired MOI in fresh media was added 26 and the brain organoids incubated at 37° C. for 3 hours with gentle shaking 28. The brain organoids were then washed with 2×1 mL PBS 30, and fresh media and CA or cladoniamide C (CC) added to the desired concentration 32 prior to incubation for the desired time at 37° C. 34. The supernatant was collected and frozen at −86° C. 36 prior to analysis and the brain organoids transferred to an Eppendorf with paraformaldehyde for electron microscopy 38.
FIG. 18 is a plot showing the anti-ZIKV activity of cladoniamide A (incubation with 1 μM CA for 72 hours; 2 biological replicates, each with 4 organoids/well) using four brain organoid systems. There was a greater than 4-log reduction in extracellular ZIKV titer when treated with CA. […] FIGS. 20 and 21 show plots showing the anti-ZIKV activity of CA and CC (incubation with 10 μM CA or CC for 69 hours, MOI 1; 4 technical replicates as there were 4 organoids/[…]).

ZIKV [2] = experiment: ZIKV infectivity by semisolid overlay plaque assay after pre-treatment of A549 and U87 MG cells; type: cell-based, Zika virus; settings: CD 15 μM, A549 and U87 MG cells, FIG. 3
DENV = experiment: Activity against DENV (summary statement, method not described); type: cell-based, dengue virus
ZIKV [3] = experiment: ZIKV viral dsRNA imaging (Cellomics ArrayScan VTI) in A549 cells; type: cell-based, Zika virus; settings: 15 μM, 1 h pre-treatment, MOI 1, 48 h
SARS-CoV-2 = SARS-CoV-2 intracellular viral RNA and nucleocapsid protein in Caco-2 cells; type: cell-based; settings: Human Caco-2 cells, 3 hours pre-treatment
A549 cells = experiment: MTS cytotoxicity assay in A549 cells; type: cell-based, human; settings: 48 h
Experimental: An MTS assay was performed to determine the cytotoxicity concentration 50% (CC50) of cladoniamide A (CA) in human A549 cells, a cell line from human lung carcinoma. Various concentrations of CA were added to cultured A549 cells and incubated (37° C., 5% CO2) for 48 h. Cell viability was then measured by an MTS assay kit (CellTiter 96™ Aqueous One Solution cell proliferation assay, Promega) according to the manufacturer's instructions. Curve fitting was performed in Igor Pro (WaveMetrics) using a hyperbolic fit algorithm (FIG. 1). The CC50 of CA in A549 cells was determined to be 54±5 μM. An MTS assay was also performed to determine the CC50 of CA in human U87 MG cells, a cell line from human brain. Various concentrations of CA were added to cultured U87 MG cells and incubated (37° C., 5% CO2) for 48 h. Cell viability was then measured by an MTS assay kit (CellTiter 96 Aqueous One Solution cell proliferation assay, Promega) according to the manufacturer's instructions. Curve fitting was performed in Igor Pro (WaveMetrics) using a hyperbolic fit algorithm (FIG. 2).

ZIKV [4] = experiment: Secreted NS1 (sNS1) ELISA, ZIKV-infected A549 cells; type: cell-based, Zika virus; settings: 24 h pre-treatment, MOI 1.0, 2 d
Experimental: Error bars represent SD among 2 biological replicates.
Cultured A549 cells were treated with various concentrations of CA or PF-429242 for 24 h before being washed with PBS and inoculated with ZIKV (ZIKV strain VR 1843, Puerto Rico, 2015; ATCC) at MOI 1.0 for 1 h. Following the removal of the inoculum, cells were incubated in fresh media for 2 d before the supernatant was collected, clarified, and secreted NS1 protein abundance was measured by an ELISA kit (BioFront Technologies) according to the manufacturer's instructions. Curve fitting was performed in Igor Pro (WaveMetrics) using a hyperbolic fit algorithm (FIG. 4; upper and middle plots) and IC50 and TI values obtained. IC50 and TI values were also obtained for CA via plaque assay (PFU; FIG. 4, lower plot). FIG. 4 (upper plot) is an ED50 curve for the PF inhibitor based on the detection of secreted Non-Structural protein 1 (sNS1), secreted viral biomarker. sNS1 was detected using an Elisa test (commercially available). FIG. 4 (middle plot) is an ED50 curve for CA based on the detection of secreted Non-Structural protein 1 (sNS1), secreted viral biomarker. sNS1 was detected using an Elisa test (commercially available).

## COc1c2n(c3ccccc13)[C@]1(O)C(=O)N(C)C(=O)[C@]1(O)c1c-2[nH]c2ccccc12 [CC, (11S,15R)-11,15-dihydroxy-23-methoxy-13-methyl-3,13,16-triazahexacyclo[14.7.0.0^2,10.0^4,9.0^11,15.0^17,22]tricosa-1(23),2(10),4,6,8,17,19,21-octaene-12,14-dione]
ZIKV [1]
  anti-ZIKV activity in brain organoids (NS1, dsRNA): showed anti-ZIKV activity

## CNC(=O)[C@]1(O)C(=O)c2c([nH]c3ccc(Cl)cc23)-c2c(OC)c3ccccc3n21 [CD, (12R)-7-chloro-12-hydroxy-20-methoxy-N-methyl-11-oxo-3,13-diazapentacyclo[11.7.0.0^2,10.0^4,9.0^14,19]icosa-1(20),2(10),4(9),5,7,14,16,18-octaene-12-carboxamide]
ZIKV [2]
  inhibitory effect on production of infectious ZIKV virions: did not show any inhibitory effect
DENV
  activity against DENV: no activity
ZIKV [3]
  activity against ZIKV (viral dsRNA): did not show any inhibitory effect
SARS-CoV-2
  antiviral effect against SARS-CoV-2: no antiviral effect

## CNC(=O)[C@]1(O)C(=O)c2c([nH]c3ccc(Cl)cc23)-c2c(OC)c3cc(Cl)ccc3n21 [CE, (12R)-7,17-dichloro-12-hydroxy-20-methoxy-N-methyl-11-oxo-3,13-diazapentacyclo[11.7.0.0^2,10.0^4,9.0^14,19]icosa-1(20),2(10),4(9),5,7,14(19),15,17-octaene-12-carboxamide]
ZIKV [3]
  activity against ZIKV (viral dsRNA): did not show any inhibitory effect

## CNC(=O)[C@@]1(O)C(=O)n2c(c(OC)c3ccccc32)-c2[nH]c3ccc(Cl)cc3c21 [CF, (11R)-7-chloro-11-hydroxy-20-methoxy-N-methyl-12-oxo-3,13-diazapentacyclo[11.7.0.0^2,10.0^4,9.0^14,19]icosa-1(20),2(10),4(9),5,7,14,16,18-octaene-11-carboxamide]
ZIKV [3]
  activity against ZIKV (viral dsRNA): did not show any inhibitory effect

## CCN(CC)Cc1ccc(C(=O)N(CCc2ccccc2OC)[C@@H]2CCNC2)cc1 [PF, PF-429242, reference compound]
A549 cells
  CC50: 69 µM
ZIKV [4]
  IC50: 13 µM
